One assay deals with Sphaerotheca fuliginea. The assay can be described thus: Protective activity against mildew of cucumber, spray on potted cucumber seedlings. Conditions: cucumber cv. chinese snake, 7 days. It counts as in vivo. How it is done: (§1) The active compounds, separately or together, were formulated as a 10% emulsion in a mixture of 85% by weight of cyclohexanone and 5% by weight of emulsifier, and diluted with water to the desired concentration.
(§2) Evaluation was carried out by determining the infected leaf areas in percent. These percentages were converted into efficacies. The efficacy (W) was calculated as follows using Abbot's formula:
(§3) [formula] • α corresponds to the fungal infection of the treated plants in % and • β corresponds to the fungal infection of the untreated (control) plants in %.
(§4) An efficacy of 0 means that the infection level of the treated plants corresponds to that of the untreated control plants; an efficacy of 100 means that the treated plants were not infected.
(§5) The expected efficacies of the mixtures of the active compounds were determined using Colby's formula [R. S. Colby, Weeds 15, 20-22 (1967)] and compared with the observed efficacies. Colby formula: E=x+y−xy/100 • E expected efficacy, expressed in % of the untreated control, when using the mixture of the active compounds A and B at the concentrations a and b • x efficacy, expressed in % of the untreated control, when using active compound A at a concentration of a • y efficacy, expressed in % of the untreated control, when using active compound B at a concentration of b.
Use example 2: Protective activity against mildew of cucumber caused by Sphaerotheca fuliginea
Leaves of cucumber seedlings of the cultivar “chinese snake”, grown in pots, were, at the cotyledon stage, sprayed to runoff point with an aqueous preparation of active compound which had been prepared from a stock solution comprising 10% of active compound, 85% of cyclohexanone and 5% of emulsifier. 20 hours after the spray coating had dried on, the plants were inoculated with an aqueous spore suspension of mildew of cucumber (Sphaerotheca fuliginea). The plants were then cultivated in a greenhouse at 20-24° C. and 60-80% relative atmospheric humidity for 7 days. The extent of the mildew development was then determined visually in % infection of the cotyledon area. The visually determined values for the percentage of diseased leaf areas were converted into efficacies in % of the untreated control. An efficacy of 0 means the same disease level as in the untreated control, an efficacy of 100 means a disease level of 0%. The expected efficacies for the combinations of active compounds were determined using Colby's formula, mentioned above, and compared with the observed efficacies.

Assay [1] has as its system Erysiphe [syn. Blumeria] graminis form a specialis. tritici. The assay can be described thus: Activity against mildew of wheat, protective spray on potted wheat seedlings. It counts as in vivo. Conditions: wheat cv. Kanzler, 7 days. As to the method:
as §1, §2, §3, §4, §5
Use example 1: Activity against mildew of wheat caused by Erysiphe [syn. Blumeria] graminis form a specialis. tritici
Leaves of wheat seedlings of the cultivar “Kanzler”, grown in pots, were sprayed to runoff point with an aqueous preparation of active compound which had been prepared from a stock solution comprising 10% of active compound, 85% of cyclohexanone and 5% of emulsifier, and 24 hours after the spray coating had dried on, the leaves were dusted with spores of mildew of wheat (Erysiphe [syn. Blumeria] graminis form a specialis. tritici). The test plants were then placed in a greenhouse at 20-24° C. and 60-90% relative atmospheric humidity. After 7 days, the extent of the mildew development was determined visually in % infection of the entire leaf area.
The visually determined values for the percentage of diseased leaf areas were converted into efficacies in % of the untreated control. An efficacy of 0 means the same disease level as in the untreated control, an efficacy of 100 means a disease level of 0%. The expected efficacies for the combinations of active compounds were determined using Colby's formula, mentioned above, and compared with the observed efficacies.

Structures are written as SMILES.

`OC(Cc1ccccc1Cl)(Cn1nc[nH]c1=S)C1(Cl)CC1` (stereo not shown) [Compound I, 2-[2-(1-chlorocyclopropyl)-3-(2-chlorophenyl)-2-hydroxypropyl]-2,4-dihydro-[1,2,4]-triazole-3-thione]: the “Efficacy in % of the untreated control” value in the assay with Sphaerotheca fuliginea (0.25 ppm in the spray liquor) is 56%; with Sphaerotheca fuliginea (1 ppm in the spray liquor), 78%; in assay [1] (0.25 ppm in the spray liquor) it was 0%; in assay [1] (1 ppm in the spray liquor) it was 0%; in assay [1] (4 ppm in the spray liquor), 42%.
Consider `O=C(Nc1ccccc1-c1ccc(Cl)cc1)c1cccnc1Cl` [Compound II, boscalid], for which the “Efficacy in % of the untreated control” value in the assay on Sphaerotheca fuliginea (0.06 ppm in the spray liquor) was 0%; with Sphaerotheca fuliginea (0.25 ppm in the spray liquor), 0%; with Sphaerotheca fuliginea (4 ppm in the spray liquor), 78%; in assay [1] (0.06 ppm in the spray liquor), 0%; in assay [1] (0.25 ppm in the spray liquor), 0%; in assay [1] (1 ppm in the spray liquor), 0%. In assay [1] (4 ppm in the spray liquor), the “Efficacy in % of the untreated control” value is recorded as 0%.
For the molecule `COc1cc(C)c(C(=O)c2c(OC)ccc(Br)c2C)c(OC)c1OC` [Compound IV, metrafenone], the “Efficacy in % of the untreated control” value in the assay on Sphaerotheca fuliginea (0.015 ppm in the spray liquor) is 0%; in the assay with Sphaerotheca fuliginea (0.06 ppm in the spray liquor) it was 0%; in assay [1] (0.015 ppm in the spray liquor) it was 30%; in assay [1] (0.06 ppm in the spray liquor), 53%.
For the molecule `N#Cc1sc2c(=O)c3ccccc3c(=O)c=2sc1C#N` [Compound VIII, dithianon], the “Efficacy in % of the untreated control” value in assay [1] (1 ppm in the spray liquor) and in assay [1] (4 ppm in the spray liquor) was 0% in each case.
`O=C(Cc1ccccc1)N/C(=N\OCC1CC1)c1c(OC(F)F)ccc(F)c1F` [Compound VI]: the “Efficacy in % of the untreated control” value in the assay on Sphaerotheca fuliginea (0.015 ppm in the spray liquor) was 0%; with Sphaerotheca fuliginea (0.06 ppm in the spray liquor), 33%; in assay [1] (0.06 ppm in the spray liquor), 0%; in assay [1] (0.25 ppm in the spray liquor), 53%.
On to `Cc1ccc(-c2c(Cl)nc(C#N)n2S(=O)(=O)N(C)C)cc1` [Compound XI, cyazofamid], for which the “Efficacy in % of the untreated control” value in assay [1] (0.06 ppm in the spray liquor) is listed as 0%; in assay [1] (0.25 ppm in the spray liquor), 22%; in assay [1] (1 ppm in the spray liquor), 22%.
